Experimental data published in the NIST ThermoML archive (doi:10.1016/j.fluid.2018.06.003).
± gives the expanded uncertainty stated by the source.

Experiments:
[1] = xn = mol fraction of the nth substance listed; conditions: 298.15 K; 101 kPa; Liquid; Vibrating tube method; x1 = 0.3336
[2] = refractive index (Na D-line) (dimensionless); xn = mol fraction of the nth substance listed; conditions: 298.15 K; 101 kPa; Liquid; Standard Abbe refractometry; x1 = 0.3336

C[N+](C)(C)C.[Cl-] [tetramethylammonium chloride] + OCC(O)CO showed a mass density [1] of 1145.22 ± 2.1 kg/m3 and a refractive index [2] of 1.47183 ± 0.00044.
